Results reported in article PMC8287724, “Reducing Auditory Nerve Excitability by Acute Antagonism of Ca^2+-Permeable AMPA Receptors” (Frontiers in Synaptic Neuroscience, 2021).

How the values were obtained:
[1] = system: ANF postsynaptic terminals; design: method as in Puel et al., 1994; conditions: chemical lesion, basal cochlear turn perfusion ref Puel et al., 1994; cited from earlier work
[2] = system: ribbon synapses and ANF dendrites in the inner spiral plexus; test: Apical cochlear perfusion of kainic acid, immunohistofluorescence and confocal microscopy; format: in vivo, guinea pig; conditions: 2 mM in artificial perilymph, apical perfusion of scala tympani
Procedure: Following cardiac perfusion of 4% PFA in 0.1 M phosphate buffer and cervical dislocation, the temporal bone was immediately harvested, and the cochlea was isolated. Each cochlea was post-fixed for 20 min at 4°C in a dish with 4% PFA, where a small fenestration was made in the round window, oval window, and the apex of each cochlea to gently flush with 1 mL of fixative. Each cochlea was then decalcified in 10% EDTA at room temperature for 6 h, exchanging EDTA every 2 h. The decalcified outer bone was removed to reveal the underlying cochlear spiral. Small pieces of cochlear turns were placed in buffer overnight at 4°C in Triton X-100 with donkey serum. […]
The method of apical intracochlear drug delivery has previously been well-detailed (Lichtenhan et al., [2016a]). […] Response waveforms were recorded immediately prior to apical drug perfusion to establish a baseline, throughout perfusion which took 6 min, and then immediately after perfusion, from a round window electrode. […]

[3] = system: cochlear afferent synapses; design: method as in earlier work; conditions: ref Robertson, 1983; Puel et al., 1998; Furman et al., 2013; Hickman et al., 2020; cited from earlier work

Row | SMILES | effect of pre-perfusion on ANF terminal swelling [1] | other results
1 | NC(CCCP(=O)(O)O)C(=O)O [D-AP5] | not | –
2 | O=c1[nH]c2cc([N+](=O)[O-])c([N+](=O)[O-])cc2[nH]c1=O [DNQX] | prevented | –
3 | C=C(C)[C@H]1CN[C@H](C(=O)O)[C@H]1CC(=O)O [KA, kainic acid] | – | effect on innervation and ribbon synapses [2]: void of innervation in the ISP and ribbon synapse disintegration
4 | O=C(O)c1cc(=O)c2ccccc2[nH]1 [kynurenic acid] | – | effect on synapse loss and osmotic damage after synaptopathic noise exposure [3]: blocked
